Test results published in patent US11149033B2, “Heteroaryl compound, enantiomer, diastereomer or pharmaceutically acceptable salt thereof, and antiviral composition containing same as active ingredient” (priority 2016, dated 2021).
Read-outs that look alike come from different tables or passages of the source.

Legend:
[1] = test system: A/California/07/2009 (H1N1); experiment: Antiviral activity (drug efficacy evaluation by concentration) against A/California/07/2009 (H1N1); format: cell-based, A type influenza virus; conditions: Influenza A virus
B/Florida/04/2006 = experiment: Antiviral activity (drug efficacy evaluation by concentration) against B/Florida/04/2006; format: cell-based, B type influenza virus
A/Perth/16/2009 (H3N2) = experiment: Antiviral activity (drug efficacy evaluation by concentration) against A/Perth/16/2009 (H3N2); format: cell-based, A type influenza virus; conditions: Influenza A virus
[2] = H1N1, A/California/07/2009 (H1N1), read-out: EC50 A/California/07/2009 (H1N1)
[3] = read-out: EC50 B/Florida/04/2006, B/Florida/04/2006
[4] = H3N2, A/Perth/16/2009 (H3N2), read-out: EC50 A/Perth/16/2009 (H3N2)
[5] = CC50 B/Florida/04/2006, cytotoxicity in the B/Florida/04/2006 assay
[6] = CC50, third EC50/CC50 column pair (c7), beside the EC50 of c6

Compound | EC50 [1, 2] [µM] | EC50 (B/Florida/04/2006; [3]) [µM] | EC50 (A/Perth/16/2009 (H3N2); [4]) [µM] | CC50 (in vitro; [5]) [µM] | EC50 ([1]; H1N1, read-out: EC50) [µM] | EC50 (B/Florida/04/2006) [µM] | EC50 (A/Perth/16/2009 (H3N2); H3N2, read-out: EC50) [µM] | CC50 (in vitro; CC50, beside the EC50 of c2) [µM] | CC50 (in vitro; CC50, beside the EC50 of c4) [µM] | CC50 (in vitro; [6]) [µM]
Cc1nn(Cc2nnc(N(C)Cc3ccccc3-c3ccccc3)o2)c(C)c1Br [Compound 44, N-([1,1′-biphenyl]-2-ylmethyl)-5-((4-bromo-3,5-dimethyl-1H-pyrazol-1-yl)methyl)-N-methyl-1,3,4-oxadiazol-2-amine] | > 50 | > 50 | 29.4 | > 50 |  |  |  |  |  | 
CC(=O)N(Cc1ccccc1-c1ccccc1)c1nnc(Cn2nc(C)c(Br)c2C)o1 [Compound 45, N-([1,1′-biphenyl]-2-ylmethyl)-N-(5-((4-bromo-3,5-dimethyl-1H-pyrazol-1-yl)methyl)-1,3,4-oxadiazol-2-yl)acetamide] | 26.2 | 23.8 | 25.8 | 33.5 |  |  |  |  |  | 
Cc1nn(Cc2nnc(Cc3cccc(Cl)c3)o2)c(C)c1Br [Compound 46, 2-((4-bromo-3,5-dimethyl-1H-pyrazol-1-yl)methyl)-5-(3-chlorobenzyl)-1,3,4-oxadiazole] | 24.3 | 27.5 | 21.8 | > 50 |  |  |  |  |  | 
Cc1nn(CCc2nnc(SCc3ccccc3-c3ccccc3)o2)c(C)c1Br [Compound 49, 2-(([1,1′-biphenyl]-2-ylmethyl)thio)-5-(2-(4-bromo-3,5-dimethyl-1H-pyrazol-1-yl)ethyl)-1,3,4-oxadiazole] | > 50 | > 50 | > 50 | > 50 |  |  |  |  |  | 
Cc1nn(Cc2nnc(/C=C/c3ccccc3C(C)C)o2)c(C)c1Br [Compound 50, (E)-2-((4-bromo-3,5-dimethyl-1H-pyrazol-1-yl)methyl)-5-(2-isopropylstyryl)-1,3,4-oxadiazole] | 18.7 | 24.5 | 11.4 | > 50 |  |  |  |  |  | 
Brc1ccc(OCc2nnc(SCc3ccccc3-c3ccccc3)o2)cc1 [Compound 58, 2-(([1,1′-biphenyl]-2-ylmethyl)thio)-5-((4-bromophenoxy)methyl)-1,3,4-oxadiazole] | > 50 | > 50 | 44.3 | > 50 |  |  |  |  |  | 
CC(c1ccccc1)c1nnc(SCc2ccccc2-c2ccccc2)o1 (centres unmarked) [Compound 73, 2-(([1,1′-biphenyl]-2-ylmethyl)thio)-5-(1-phenylethyl)-1,3,4-oxadiazole] | 17.2 | > 50 | 41.7 | > 50 |  |  |  |  |  | 
FC(F)(c1ccc(Br)cc1)c1nnc(SCc2ccccc2-c2ccccc2)o1 [Compound 74, 2-(([1,1′-biphenyl]-2-ylmethyl)thio)-5-((4-bromophenyl)difluoromethyl)-1,3,4-oxadiazole] | 21.2 | > 50 | 11 | > 50 |  |  |  |  |  | 
Brc1ccc(Nc2nnc(/C=C/c3ccccc3Br)o2)cc1 [Compound 83, (E)-N-(4-bromophenyl)-5-(2-bromostyryl)-1,3,4-oxadiazol-2-amine] |  |  |  |  | 4.25 | 4.63 | 4.75 | > 50 | > 50 | > 50
CC(C)c1ccccc1CCc1nnc(Cc2ccc(Br)cc2)o1 [Compound 92, 2-(4-bromobenzyl)-5-(2-isopropylphenethyl)-1,3,4-oxadiazole] |  |  |  |  | 7.17 | 6.59 | 6.42 | > 50 | > 50 | > 50
CC(C)c1ccccc1CCc1nnc(Cc2ccc(OC(F)(F)F)cc2)o1 [Compound 93, 2-(2-isopropylphenethyl)-5-(4-(trifluoromethoxy)benzyl)-1,3,4-oxadiazole] |  |  |  |  | 22.1 | 45.1 | 31.5 | > 50 | > 50 | > 50
Cc1cc(C)cc(Cc2nnc(CCc3ccccc3C(C)C)o2)c1 [Compound 94, 2-(3,5-dimethylbenzyl)-5-(2-isopropylphenethyl)-1,3,4-oxadiazole] |  |  |  |  | 37.8 | > 50 | 43.4 | > 50 | > 50 | > 50
Clc1cccc(Cc2nnc(SCc3ccccc3-c3ccccc3)o2)c1 [Compound 95, 2-(([1,1′-biphenyl]-2-ylmethyl)thio)-5-(3-chlorobenzyl)-1,3,4-oxadiazole] |  |  |  |  | 12.5 | 37.6 | 41.4 | > 50 | > 50 | > 50
Cc1nn(Cc2nnc(S(=O)(=O)Cc3ccccc3-c3ccccc3)o2)c(C)c1Br [Compound 96, 2-(([1,1′-biphenyl]-2-ylmethyl)sulfonyl)-5-((4-bromo-3,5-dimethyl-1H-pyrazol-1-yl)methyl)-1,3,4-oxadiazole] |  |  |  |  | 1.3 | 1.03 | 1.3 | > 50 | > 50 | > 50
COC(c1ccccc1)c1nnc(SCc2ccccc2-c2ccccc2)o1 (centres unmarked) [Compound 97, 2-(([1,1′-biphenyl]-2-ylmethyl)thio)-5-(methoxy(phenyl)methyl)-1,3,4-oxadiazole] |  |  |  |  | 4.4 | 2.53 | 5.9 | 6.08 | 6.2 | 6
Brc1ccc(Cc2nnc(Cc3cccc4ccccc34)o2)cc1 [Compound 100, 2-(4-bromobenzyl)-5-(naphthalen-1-ylmethyl)-1,3,4-oxadiazole] |  |  |  |  | > 50 | > 50 | 49 | > 50 | > 50 | > 50
CC(C)c1ccccc1CCc1nnc(Cc2cccc(Br)c2)o1 [Compound 101, 2-(3-bromobenzyl)-5-(2-isopropylphenethyl)-1,3,4-oxadiazole] |  |  |  |  | 45.3 | 36.5 | 45.5 | > 50 | > 50 | > 50
CC(C)c1ccccc1CCc1nnc(Cc2cccc(Cl)c2)o1 [Compound 102, 2-(3-chlorobenzyl)-5-(2-isopropylphenethyl)-1,3,4-oxadiazole] |  |  |  |  | 1.7 | 2.14 | 1.5 | 47.7 | > 50 | > 50
Cc1ccccc1CCc1nnc(Cc2ccc(Br)cc2)o1 [Compound 103, 2-(4-bromobenzyl)-5-(2-methylphenethyl)-1,3,4-oxadiazole] |  |  |  |  | 3.1 | 3.15 | 3 | > 50 | > 50 | > 50
Brc1cccc(Cc2nnc(SCc3ccccc3-c3ccccc3)o2)c1 [Compound 104, 2-(([1,1′-biphenyl]-2-ylmethyl)thio)-5-(3-bromobenzyl)-1,3,4-oxadiazole] |  |  |  |  | > 50 | 42.8 | > 50 | > 50 | > 50 | > 50
FC(F)(F)Oc1ccc(Cc2nnc(SCc3ccccc3-c3ccccc3)o2)cc1 [Compound 106, 2-(([1,1′-biphenyl]-2-ylmethyl)thio)-5-(4-(trifluoromethoxy)benzyl)-1,3,4-oxadiazole] |  |  |  |  | 11.5 | 12.1 | 11.8 | > 50 | > 50 | > 50
Brc1ccc(Cc2nnc(CC3CCCc4ccccc43)o2)cc1 (centres unmarked) [Compound 109, 2-(4-bromobenzyl)-5-((1,2,3,4-tetrahydronaphthalen-1-yl)methyl)-1,3,4-oxadiazole] |  |  |  |  | 45.9 | 34.7 | 32.4 | > 50 | > 50 | > 50
Cc1ccccc1C(C)Cc1nnc(Cc2ccc(Br)cc2)o1 (centres unmarked) [Compound 110, 2-(4-bromobenzyl)-5-(2-(o-tolyl)propyl)-1,3,4-oxadiazole] |  |  |  |  | 32.2 | 46.7 | 41.5 | 46.7 | > 50 | > 50
Cc1cc(C)cc(Cc2nnc(/C=C/c3ccccc3C(C)C)o2)c1 [Compound 113, 2-(3,5-dimethylbenzyl)-5-(2-isopropylstyryl)-1,3,4-oxadiazole] |  |  |  |  | 1.37 | 1.55 | 1.39 | 10 | 25.5 | 40.2
CC(C)c1ccccc1OCc1nnc(Cc2ccccc2)o1 [Compound 114, 2-benzyl-5-((2-isopropylphenoxy)methyl)-1,3,4-oxadiazole] |  |  |  |  | 17.7 | 12 | 17.7 | 21.8 | > 50 | > 50
CC(C)c1ccccc1OCc1nnc(Cc2ccc(Br)cc2)o1 [Compound 115, 2-(4-bromobenzyl)-5-((2-isopropylphenoxy)methyl)-1,3,4-oxadiazole] |  |  |  |  | 44.9 | 45.1 | 38.2 | > 50 | > 50 | > 50
Brc1ccc(Nc2nnc(CCc3ccccc3-c3ccccc3)o2)cc1 [Compound 118, 5-(2-([1,1′-biphenyl]-2-yl)ethyl)-N-(4-bromophenyl)-1,3,4-oxadiazol-2-amine] |  |  |  |  | 43.9 | > 50 | > 50 | > 50 | > 50 | > 50
Brc1ccc(Cc2nnc(CCc3ccccc3-c3ccccc3)o2)cc1 [Compound 119, 2-(2-([1,1′-biphenyl]-2-yl)ethyl)-5-(4-bromobenzyl)-1,3,4-oxadiazole] |  |  |  |  | > 50 | > 50 | > 50 | > 50 | > 50 | > 50
